Read-outs that look alike come from different tables or passages of the source.
COc1ncc(-c2nc3c(n2C(C)C)[C@H](c2ccc(Cl)cc2)N(c2cc(Cl)cn(C)c2=O)C3=O)c(OC)n1 [HDM201, (S)-5-(5-Chloro-1-methyl-2-oxo-1,2-dihydro-pyridin-3-yl)-6-(4-chloro-phenyl)-2-(2,4-dimethoxy-pyrimidin-5-yl)-1-isopropyl-5,6-dihydro-1H-pyrrolo[3,4-d]imidazol-4-one]
4 (44.4) n (%): Total, Grade 3/4 (1B 120 mg, N=9)
1 (11.1) n (%): Abdominal Pain, All Grades (1B 120 mg, N=9) | Alopecia, All Grades (1B 120 mg, N=9) | Asthenia, All Grades (1B 120 mg, N=9) | Blood Creatine Phosphokinase Increased, Grade 3/4 (1B 120 mg, N=9) | Blood Creatinine Increased, All Grades (1B 120 mg, N=9) | Decreased Appetite, All Grades (1B 120 mg, N=9) | Dehydration, All Grades (1B 120 mg, N=9) | Dry Skin, All Grades (1B 120 mg, N=9) | Dysgeusia, All Grades (1B 120 mg, N=9) | Fatigue, All Grades (1B 120 mg, N=9) | Hyperkalaemia, All Grades (1B 120 mg, N=9) | Hypocalcaemia, All Grades (1B 120 mg, N=9) | Leukopenia, All Grades (1B 120 mg, N=9) | Lipase Increased, All Grades (1B 120 mg, N=9) | Monocytosis, All Grades (1B 120 mg, N=9) | Musculoskeletal Pain, All Grades (1B 120 mg, N=9) | Myalgia, All Grades (1B 120 mg, N=9) | Nausea, Grade 3/4 (1B 120 mg, N=9) | Thrombocytopenia, All Grades (1B 120 mg, N=9) | Weight Decreased, All Grades (1B 120 mg, N=9)
0 n (%): Abdominal Pain, Grade 3/4 (1B 120 mg, N=9) | Alanine Aminotransferase Increased, All Grades (1B 120 mg, N=9) | Alanine Aminotransferase Increased, Grade 3/4 (1B 120 mg, N=9) | Alopecia, Grade 3/4 (1B 120 mg, N=9) | Amylase Increased, All Grades (1B 120 mg, N=9) | Amylase Increased, Grade 3/4 (1B 120 mg, N=9) | Anaemia, Grade 3/4 (1B 120 mg, N=9) | Asthenia, Grade 3/4 (1B 120 mg, N=9) | Blood Bilirubin Increased, All Grades (1B 120 mg, N=9) | Blood Bilirubin Increased, Grade 3/4 (1B 120 mg, N=9) | Blood Creatinine Increased, Grade 3/4 (1B 120 mg, N=9) | Decreased Appetite, Grade 3/4 (1B 120 mg, N=9) | Dehydration, Grade 3/4 (1B 120 mg, N=9) | Diarrhoea, Grade 3/4 (1B 120 mg, N=9) | Dry Skin, Grade 3/4 (1B 120 mg, N=9) | Dysgeusia, Grade 3/4 (1B 120 mg, N=9) | Eye Pain, All Grades (1B 120 mg, N=9) | Eye Pain, Grade 3/4 (1B 120 mg, N=9) | Fatigue, Grade 3/4 (1B 120 mg, N=9) | Folliculitis, All Grades (1B 120 mg, N=9) | Folliculitis, Grade 3/4 (1B 120 mg, N=9) | Gamma-Glutamyltransferase Increased, All Grades (1B 120 mg, N=9) | Gamma-Glutamyltransferase Increased, Grade 3/4 (1B 120 mg, N=9) | Headache, All Grades (1B 120 mg, N=9) | Headache, Grade 3/4 (1B 120 mg, N=9) | Hyperkalaemia, Grade 3/4 (1B 120 mg, N=9) | Hypocalcaemia, Grade 3/4 (1B 120 mg, N=9) | Influenza Like Illness, All Grades (1B 120 mg, N=9) | Influenza Like Illness, Grade 3/4 (1B 120 mg, N=9) | Lethargy, All Grades (1B 120 mg, N=9) | Lethargy, Grade 3/4 (1B 120 mg, N=9) | Leukopenia, Grade 3/4 (1B 120 mg, N=9) | Lipase Increased, Grade 3/4 (1B 120 mg, N=9) | Lymphopenia, All Grades (1B 120 mg, N=9) | Lymphopenia, Grade 3/4 (1B 120 mg, N=9) | Monocytosis, Grade 3/4 (1B 120 mg, N=9) | Musculoskeletal Pain, Grade 3/4 (1B 120 mg, N=9) | Myalgia, Grade 3/4 (1B 120 mg, N=9) | Neuralgia, All Grades (1B 120 mg, N=9) | Neuralgia, Grade 3/4 (1B 120 mg, N=9) | Neutrophil Count Decreased, All Grades (1B 120 mg, N=9) | Neutrophil Count Decreased, Grade 3/4 (1B 120 mg, N=9) | Oedema, All Grades (1B 120 mg, N=9) | Oedema, Grade 3/4 (1B 120 mg, N=9) | Oral Candidiasis, All Grades (1B 120 mg, N=9) | Oral Candidiasis, Grade 3/4 (1B 120 mg, N=9) | Platelet Count Decreased, Grade 3/4 (1B 120 mg, N=9) | Pruritus, All Grades (1B 120 mg, N=9) | Pruritus, Grade 3/4 (1B 120 mg, N=9) | Thrombocytopenia, Grade 3/4 (1B 120 mg, N=9) | Vomiting, Grade 3/4 (1B 120 mg, N=9) | Weight Decreased, Grade 3/4 (1B 120 mg, N=9) | White Blood Cell Count Decreased, Grade 3/4 (1B 120 mg, N=9) | Abdominal Pain, Grade 3/4 (1B 150 mg, N=8) | Alanine Aminotransferase Increased, Grade 3/4 (1B 150 mg, N=8) | Alopecia, All Grades (1B 150 mg, N=8) | Alopecia, Grade 3/4 (1B 150 mg, N=8) | Amylase Increased, All Grades (1B 150 mg, N=8) | Amylase Increased, Grade 3/4 (1B 150 mg, N=8) | Anaemia, Grade 3/4 (1B 150 mg, N=8) | Asthenia, Grade 3/4 (1B 150 mg, N=8) | Blood Bilirubin Increased, Grade 3/4 (1B 150 mg, N=8) | Blood Creatine Phosphokinase Increased, All Grades (1B 150 mg, N=8) | Blood Creatine Phosphokinase Increased, Grade 3/4 (1B 150 mg, N=8) | Blood Creatinine Increased, Grade 3/4 (1B 150 mg, N=8) | Decreased Appetite, Grade 3/4 (1B 150 mg, N=8) | Dehydration, All Grades (1B 150 mg, N=8) | Dehydration, Grade 3/4 (1B 150 mg, N=8) | Diarrhoea, Grade 3/4 (1B 150 mg, N=8) | Dry Skin, All Grades (1B 150 mg, N=8) | Dry Skin, Grade 3/4 (1B 150 mg, N=8) | Dysgeusia, All Grades (1B 150 mg, N=8) | Dysgeusia, Grade 3/4 (1B 150 mg, N=8) | Eye Pain, Grade 3/4 (1B 150 mg, N=8) | Folliculitis, Grade 3/4 (1B 150 mg, N=8) | Gamma-Glutamyltransferase Increased, Grade 3/4 (1B 150 mg, N=8) | Headache, Grade 3/4 (1B 150 mg, N=8) | Hyperkalaemia, All Grades (1B 150 mg, N=8) | Hyperkalaemia, Grade 3/4 (1B 150 mg, N=8) | Hypocalcaemia, All Grades (1B 150 mg, N=8) | Hypocalcaemia, Grade 3/4 (1B 150 mg, N=8) | Influenza Like Illness, Grade 3/4 (1B 150 mg, N=8) | Lethargy, Grade 3/4 (1B 150 mg, N=8) | Monocytosis, All Grades (1B 150 mg, N=8) | Monocytosis, Grade 3/4 (1B 150 mg, N=8) | Musculoskeletal Pain, All Grades (1B 150 mg, N=8) | Musculoskeletal Pain, Grade 3/4 (1B 150 mg, N=8) | Myalgia, All Grades (1B 150 mg, N=8) | Myalgia, Grade 3/4 (1B 150 mg, N=8) | Nausea, Grade 3/4 (1B 150 mg, N=8) | Neuralgia, Grade 3/4 (1B 150 mg, N=8) | Oedema, All Grades (1B 150 mg, N=8) | Oedema, Grade 3/4 (1B 150 mg, N=8) | Oral Candidiasis, Grade 3/4 (1B 150 mg, N=8) | Platelet Count Decreased, Grade 3/4 (1B 150 mg, N=8) | Pruritus, Grade 3/4 (1B 150 mg, N=8) | Vomiting, Grade 3/4 (1B 150 mg, N=8) | Weight Decreased, All Grades (1B 150 mg, N=8) | Weight Decreased, Grade 3/4 (1B 150 mg, N=8) | White Blood Cell Count Decreased, Grade 3/4 (1B 150 mg, N=8) | Abdominal Pain, All Grades (1B 200 mg, N=3) | Abdominal Pain, Grade 3/4 (1B 200 mg, N=3) | Alanine Aminotransferase Increased, All Grades (1B 200 mg, N=3) | Alanine Aminotransferase Increased, Grade 3/4 (1B 200 mg, N=3) | Alopecia, All Grades (1B 200 mg, N=3) | Alopecia, Grade 3/4 (1B 200 mg, N=3) | Amylase Increased, Grade 3/4 (1B 200 mg, N=3) | Anaemia, Grade 3/4 (1B 200 mg, N=3) | Asthenia, All Grades (1B 200 mg, N=3) | Asthenia, Grade 3/4 (1B 200 mg, N=3) | Blood Bilirubin Increased, All Grades (1B 200 mg, N=3) | Blood Bilirubin Increased, Grade 3/4 (1B 200 mg, N=3) | Blood Creatine Phosphokinase Increased, All Grades (1B 200 mg, N=3) | Blood Creatine Phosphokinase Increased, Grade 3/4 (1B 200 mg, N=3) | Blood Creatinine Increased, All Grades (1B 200 mg, N=3) | Blood Creatinine Increased, Grade 3/4 (1B 200 mg, N=3) | Decreased Appetite, All Grades (1B 200 mg, N=3) | Decreased Appetite, Grade 3/4 (1B 200 mg, N=3) | Dehydration, All Grades (1B 200 mg, N=3) | Dehydration, Grade 3/4 (1B 200 mg, N=3) | Diarrhoea, All Grades (1B 200 mg, N=3) | Diarrhoea, Grade 3/4 (1B 200 mg, N=3) | Dry Skin, All Grades (1B 200 mg, N=3) | Dry Skin, Grade 3/4 (1B 200 mg, N=3) | Dysgeusia, All Grades (1B 200 mg, N=3) | Dysgeusia, Grade 3/4 (1B 200 mg, N=3) | Eye Pain, All Grades (1B 200 mg, N=3) | Eye Pain, Grade 3/4 (1B 200 mg, N=3) | Fatigue, Grade 3/4 (1B 200 mg, N=3) | Folliculitis, All Grades (1B 200 mg, N=3) | Folliculitis, Grade 3/4 (1B 200 mg, N=3) | Gamma-Glutamyltransferase Increased, All Grades (1B 200 mg, N=3) | Gamma-Glutamyltransferase Increased, Grade 3/4 (1B 200 mg, N=3) | Headache, All Grades (1B 200 mg, N=3) | Headache, Grade 3/4 (1B 200 mg, N=3) | Hyperkalaemia, All Grades (1B 200 mg, N=3)
7 (87.5) n (%): Total, All Grades (1B 150 mg, N=8)
1 (33.3) n (%): Amylase Increased, All Grades (1B 200 mg, N=3) | Anaemia, All Grades (1B 200 mg, N=3) | Fatigue, All Grades (1B 200 mg, N=3)
2 (25.0) n (%): Abdominal Pain, All Grades (1B 150 mg, N=8) | Anaemia, All Grades (1B 150 mg, N=8) | Diarrhoea, All Grades (1B 150 mg, N=8) | Fatigue, All Grades (1B 150 mg, N=8) | Lipase Increased, All Grades (1B 150 mg, N=8) | Lipase Increased, Grade 3/4 (1B 150 mg, N=8) | Lymphopenia, All Grades (1B 150 mg, N=8) | Neutrophil Count Decreased, Grade 3/4 (1B 150 mg, N=8) | Thrombocytopenia, Grade 3/4 (1B 150 mg, N=8) | Vomiting, All Grades (1B 150 mg, N=8)
4 (50.0) n (%): Nausea, All Grades (1B 150 mg, N=8) | Neutropenia, All Grades (1B 150 mg, N=8) | Thrombocytopenia, All Grades (1B 150 mg, N=8) | Total, Grade 3/4 (1B 150 mg, N=8)
2 (22.2) n (%): Anaemia, All Grades (1B 120 mg, N=9) | Blood Creatine Phosphokinase Increased, All Grades (1B 120 mg, N=9) | Neutropenia, All Grades (1B 120 mg, N=9) | Neutropenia, Grade 3/4 (1B 120 mg, N=9) | White Blood Cell Count Decreased, All Grades (1B 120 mg, N=9)
7 (77.8) n (%): Nausea, All Grades (1B 120 mg, N=9)
3 (33.3) n (%): Diarrhoea, All Grades (1B 120 mg, N=9) | Platelet Count Decreased, All Grades (1B 120 mg, N=9) | Vomiting, All Grades (1B 120 mg, N=9)
3 (37.5) n (%): Decreased Appetite, All Grades (1B 150 mg, N=8) | Neutropenia, Grade 3/4 (1B 150 mg, N=8) | Neutrophil Count Decreased, All Grades (1B 150 mg, N=8)
1 (12.5) n (%): Alanine Aminotransferase Increased, All Grades (1B 150 mg, N=8) | Asthenia, All Grades (1B 150 mg, N=8) | Blood Bilirubin Increased, All Grades (1B 150 mg, N=8) | Blood Creatinine Increased, All Grades (1B 150 mg, N=8) | Eye Pain, All Grades (1B 150 mg, N=8) | Fatigue, Grade 3/4 (1B 150 mg, N=8) | Folliculitis, All Grades (1B 150 mg, N=8) | Gamma-Glutamyltransferase Increased, All Grades (1B 150 mg, N=8) | Headache, All Grades (1B 150 mg, N=8) | Influenza Like Illness, All Grades (1B 150 mg, N=8) | Lethargy, All Grades (1B 150 mg, N=8) | Leukopenia, All Grades (1B 150 mg, N=8) | Leukopenia, Grade 3/4 (1B 150 mg, N=8) | Lymphopenia, Grade 3/4 (1B 150 mg, N=8) | Neuralgia, All Grades (1B 150 mg, N=8) | Oral Candidiasis, All Grades (1B 150 mg, N=8) | Platelet Count Decreased, All Grades (1B 150 mg, N=8) | Pruritus, All Grades (1B 150 mg, N=8) | White Blood Cell Count Decreased, All Grades (1B 150 mg, N=8)
9 (100) n (%): Total, All Grades (1B 120 mg, N=9)
